Calls of active or inactive are those of the source.
Legend:
T-cell = test: inhibitors of CD8+ T cell–vesicle binding, dose response, mouse 2C CD8+ T cells, flow cytometry (AID 485284); type: functional
[1] = molecular target: T1, Replicative DNA helicase DnaB (Mycobacterium tuberculosis, UniProt P9WMR3); test: DnaB intein splicing inhibitors, dose response, biochemical, cell-free fluorescence (AID 449749); type: functional
T1 sequence (P9WMR3 whole entry): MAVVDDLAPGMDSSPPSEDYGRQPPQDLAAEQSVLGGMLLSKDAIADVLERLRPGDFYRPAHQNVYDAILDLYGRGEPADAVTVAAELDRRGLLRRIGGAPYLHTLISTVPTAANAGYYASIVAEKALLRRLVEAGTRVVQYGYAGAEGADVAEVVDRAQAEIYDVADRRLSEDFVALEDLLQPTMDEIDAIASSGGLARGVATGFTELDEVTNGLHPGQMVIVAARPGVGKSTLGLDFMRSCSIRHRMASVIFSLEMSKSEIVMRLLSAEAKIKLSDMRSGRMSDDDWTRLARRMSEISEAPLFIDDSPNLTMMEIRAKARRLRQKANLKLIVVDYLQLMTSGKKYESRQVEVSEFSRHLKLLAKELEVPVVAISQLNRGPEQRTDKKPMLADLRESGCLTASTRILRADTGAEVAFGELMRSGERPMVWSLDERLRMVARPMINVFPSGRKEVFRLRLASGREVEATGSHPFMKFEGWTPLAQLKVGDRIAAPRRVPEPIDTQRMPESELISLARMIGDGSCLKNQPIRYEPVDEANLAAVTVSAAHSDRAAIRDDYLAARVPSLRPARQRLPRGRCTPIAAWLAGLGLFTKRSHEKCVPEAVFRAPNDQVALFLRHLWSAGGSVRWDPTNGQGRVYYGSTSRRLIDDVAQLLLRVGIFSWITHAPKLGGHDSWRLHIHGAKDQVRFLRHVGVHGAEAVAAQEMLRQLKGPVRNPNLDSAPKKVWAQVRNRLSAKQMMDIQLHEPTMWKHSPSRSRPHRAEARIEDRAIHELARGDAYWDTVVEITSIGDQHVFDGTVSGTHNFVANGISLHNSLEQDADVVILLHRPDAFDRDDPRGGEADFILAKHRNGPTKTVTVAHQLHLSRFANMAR

[2] = Intein inhibitors as potential Tuberculosis drugs, a cytotoxicity screen. [Related pubchem assays (depositor defined):AID2221, AID2223, AID434968, AID435010, AID449749, AID449750, AID489010]; type: functional
[3] = Luminescence Cell-Based Dose Response HTS to Identify Inhibitors of 5'UTR Stem-Loop Driven Prion Protein mRNA Translation in H4 Neuroglioblastoma Cells. [Related pubchem assays: 1827 (Project Summary), 1813 (Primary HTS)]; type: functional
[4] = cytotoxicity toward DRD oncogenic fibroblasts, dose response, cell-based, non-viral oncogenic, luminescence (AID 1934); type: functional; conditions: Homo sapiens
BJ [5] = test: cells; type: functional, cell-based; conditions: Homo sapiens
INS1 = test: beta cell apoptosis inhibitors, cytokine rescue, dose response, luminescence, retest (AID 449756); type: functional, cell-based; conditions: Rattus norvegicus;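 also: cell death triggered by IL-1 beta plus TNF-alpha plus IFN-gamma mixture; protective hits raise ATP signal compared with cytokine alone wells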
[6] = molecular target: T2, Apoptotic protease-activating factor 1 (Homo sapiens, UniProt O14727); type: functional
T2 sequence (O14727 whole entry): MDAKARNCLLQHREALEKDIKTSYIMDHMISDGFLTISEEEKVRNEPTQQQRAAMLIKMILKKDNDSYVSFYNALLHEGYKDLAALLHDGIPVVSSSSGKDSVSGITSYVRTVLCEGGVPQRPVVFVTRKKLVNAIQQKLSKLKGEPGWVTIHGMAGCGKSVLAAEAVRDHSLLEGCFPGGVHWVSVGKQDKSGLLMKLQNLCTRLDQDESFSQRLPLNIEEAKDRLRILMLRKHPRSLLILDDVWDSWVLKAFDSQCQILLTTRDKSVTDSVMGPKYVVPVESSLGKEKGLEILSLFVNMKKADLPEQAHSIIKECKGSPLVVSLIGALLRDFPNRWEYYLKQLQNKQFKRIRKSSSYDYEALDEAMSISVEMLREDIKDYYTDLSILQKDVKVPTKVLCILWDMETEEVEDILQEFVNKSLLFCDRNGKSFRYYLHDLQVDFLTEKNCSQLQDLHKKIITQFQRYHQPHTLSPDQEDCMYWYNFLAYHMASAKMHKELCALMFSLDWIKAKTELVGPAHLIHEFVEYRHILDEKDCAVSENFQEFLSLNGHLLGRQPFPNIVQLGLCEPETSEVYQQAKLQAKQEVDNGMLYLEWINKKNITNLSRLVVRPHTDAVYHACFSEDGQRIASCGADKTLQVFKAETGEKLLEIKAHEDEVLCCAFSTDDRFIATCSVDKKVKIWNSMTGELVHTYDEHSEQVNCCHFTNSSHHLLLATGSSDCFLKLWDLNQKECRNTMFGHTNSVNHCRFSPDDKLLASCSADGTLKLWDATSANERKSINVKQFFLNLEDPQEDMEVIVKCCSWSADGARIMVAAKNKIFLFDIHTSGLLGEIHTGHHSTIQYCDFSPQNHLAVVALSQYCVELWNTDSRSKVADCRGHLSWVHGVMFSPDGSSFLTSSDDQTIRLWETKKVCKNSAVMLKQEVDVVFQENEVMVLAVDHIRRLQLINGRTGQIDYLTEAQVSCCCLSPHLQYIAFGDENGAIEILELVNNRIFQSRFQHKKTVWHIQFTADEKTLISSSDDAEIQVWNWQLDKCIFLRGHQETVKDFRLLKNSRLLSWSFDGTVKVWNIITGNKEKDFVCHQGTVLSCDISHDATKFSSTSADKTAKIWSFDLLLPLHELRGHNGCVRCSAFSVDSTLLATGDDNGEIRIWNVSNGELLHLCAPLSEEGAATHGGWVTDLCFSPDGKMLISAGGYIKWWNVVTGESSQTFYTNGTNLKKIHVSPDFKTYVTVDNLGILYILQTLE

Protein RecA = molecular target: T3, Protein RecA (Mycobacterium tuberculosis, UniProt P9WHJ3); test: Fluorescence Cell-Free Homogeneous Dose Retest to Identify Inhibitors of RecA-Intein Splicing Activity. [Related pubchem assays (depositor defined):AID2097, AID2223, AID489010, AID492950]; type: functional
T3 sequence (P9WHJ3 whole entry): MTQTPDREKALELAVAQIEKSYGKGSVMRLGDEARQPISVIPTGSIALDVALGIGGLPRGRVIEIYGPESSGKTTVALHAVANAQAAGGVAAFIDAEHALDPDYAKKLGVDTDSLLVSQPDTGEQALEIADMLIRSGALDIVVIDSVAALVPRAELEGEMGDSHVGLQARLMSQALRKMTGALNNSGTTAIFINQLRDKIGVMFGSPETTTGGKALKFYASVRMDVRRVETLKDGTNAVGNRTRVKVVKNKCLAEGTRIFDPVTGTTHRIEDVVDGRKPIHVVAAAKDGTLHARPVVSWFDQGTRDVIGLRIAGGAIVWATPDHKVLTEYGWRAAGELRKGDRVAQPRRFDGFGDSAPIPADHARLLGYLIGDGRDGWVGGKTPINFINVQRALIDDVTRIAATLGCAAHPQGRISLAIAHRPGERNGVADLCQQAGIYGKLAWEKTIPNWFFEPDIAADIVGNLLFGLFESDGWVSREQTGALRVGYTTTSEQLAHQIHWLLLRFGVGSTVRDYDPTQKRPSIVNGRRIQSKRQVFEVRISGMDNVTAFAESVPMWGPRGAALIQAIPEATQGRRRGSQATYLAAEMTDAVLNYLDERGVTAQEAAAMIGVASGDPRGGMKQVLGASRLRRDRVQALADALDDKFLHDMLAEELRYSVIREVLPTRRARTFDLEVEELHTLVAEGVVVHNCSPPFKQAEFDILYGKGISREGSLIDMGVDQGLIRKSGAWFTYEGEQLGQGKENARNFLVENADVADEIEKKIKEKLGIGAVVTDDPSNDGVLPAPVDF

BJ [7] = test: cytotoxicity toward BJ-TERT fibroblasts, dose response, cell-based, RAS-independent, luminescence (AID 1933); type: functional; conditions: Homo sapiens
BJ [8] = test: cytotoxicity toward BJ-TERT-LT-ST fibroblasts, dose response, cell-based, RAS-independent, luminescence (AID 1935); type: functional; conditions: Homo sapiens;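 also: BJ fibroblasts immortalized with TERT plus LT and ST oncogenes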
[9] = inhibitors of firefly luciferase expression or activity, dose response, H4 neuroglioma cells, luminescence (AID 1990); type: functional, cell-based
[10] = molecular target: Mitochondrial peptide methionine sulfoxide reductase (Bos taurus, UniProt P54149); type: functional;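 also: absorbance read-out, biochemical high-throughput dose-response screen for MsrA inhibitors, confirmatory; recombinant bovine MsrA coupled to E. coli TrxB with NADPH and selenocystamine; potency is for inhibitors of MsrA activity on DMSO substrate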
[11] = molecular target: Alkaline phosphatase, tissue-nonspecific isozyme (Homo sapiens, UniProt P05186); test: human TNAP enzyme inhibitors, SAR follow-up, biochemical, luminescent, dose response (AID 1056)
[12] = molecular target: Alkaline phosphatase, placental type (Homo sapiens, UniProt P05187); test: PLAP enzyme inhibitors, confirmation, biochemical, luminescence (AID 1512); type: functional
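For CC50 in this document: cells exposed to compound for 72 hours before luminescence readout.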

Sequence of Alkaline phosphatase, tissue-nonspecific isozyme (P05186 whole entry): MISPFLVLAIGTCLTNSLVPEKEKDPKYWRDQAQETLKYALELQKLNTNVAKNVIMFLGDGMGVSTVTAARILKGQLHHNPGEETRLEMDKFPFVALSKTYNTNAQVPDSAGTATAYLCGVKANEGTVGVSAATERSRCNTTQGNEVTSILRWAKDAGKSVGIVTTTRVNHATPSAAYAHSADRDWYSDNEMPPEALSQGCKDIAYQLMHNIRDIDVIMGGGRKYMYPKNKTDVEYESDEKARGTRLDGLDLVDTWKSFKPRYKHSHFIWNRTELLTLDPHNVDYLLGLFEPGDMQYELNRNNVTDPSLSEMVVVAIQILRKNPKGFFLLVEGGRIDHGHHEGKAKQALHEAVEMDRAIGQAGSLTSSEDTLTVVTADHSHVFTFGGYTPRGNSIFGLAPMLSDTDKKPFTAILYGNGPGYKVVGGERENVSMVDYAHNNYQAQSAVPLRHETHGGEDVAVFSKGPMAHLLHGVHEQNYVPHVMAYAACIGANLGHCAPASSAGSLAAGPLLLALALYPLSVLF
Sequence of Alkaline phosphatase, placental type (P05187 whole entry): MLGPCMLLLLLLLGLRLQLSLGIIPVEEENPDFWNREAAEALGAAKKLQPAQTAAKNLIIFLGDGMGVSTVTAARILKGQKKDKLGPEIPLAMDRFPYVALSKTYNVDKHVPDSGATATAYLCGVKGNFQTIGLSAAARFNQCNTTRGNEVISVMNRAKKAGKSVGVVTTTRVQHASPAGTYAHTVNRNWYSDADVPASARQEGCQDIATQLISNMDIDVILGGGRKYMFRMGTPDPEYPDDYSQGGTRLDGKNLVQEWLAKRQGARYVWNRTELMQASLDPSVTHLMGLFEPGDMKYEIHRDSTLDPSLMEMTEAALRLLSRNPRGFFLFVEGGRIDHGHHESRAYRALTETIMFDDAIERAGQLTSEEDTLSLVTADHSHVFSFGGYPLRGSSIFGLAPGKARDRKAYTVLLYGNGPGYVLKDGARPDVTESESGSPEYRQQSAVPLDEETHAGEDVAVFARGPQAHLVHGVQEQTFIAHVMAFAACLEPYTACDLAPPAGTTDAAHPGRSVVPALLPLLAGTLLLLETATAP
Sequence of Mitochondrial peptide methionine sulfoxide reductase (P54149 whole entry): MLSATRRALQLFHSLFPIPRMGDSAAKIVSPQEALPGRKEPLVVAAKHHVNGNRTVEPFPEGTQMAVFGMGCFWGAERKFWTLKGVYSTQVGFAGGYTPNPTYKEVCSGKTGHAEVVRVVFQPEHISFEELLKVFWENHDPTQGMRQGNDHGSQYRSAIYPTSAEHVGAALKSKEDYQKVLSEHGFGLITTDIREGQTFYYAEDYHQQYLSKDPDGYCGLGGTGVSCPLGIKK

Q: For CCOc1ccccc1NC(=O)c1ccc(F)c(S(=O)(=O)N2CCC3(CC2)OCCO3)c1, which EC50 (T-cell) is on record?
A: Its EC50 is 16.4 µM (active).

Q: Which results are given for Cc1oc2c(c1C(=O)N1CCOCC1)C(=O)c1ccccc1C2=O?
A: AC50 [1]: 1.41 µM (active); CC50 [2]: 6.26 µM (active); EC50 [3]: 8.93 µM (active); EC50 [4]: 10.5 µM (active); EC50 (BJ [5]): 13.4 µM (active); AC50 (INS1): 2.45 µM (active); IC50 [6]: 13.9 µM (active); EC50 (Protein RecA): 0.506 µM (active); EC50 (BJ [7]): 11.8 µM (active); EC50 (BJ [8]): > 75 µM (inconclusive); EC50 [9]: 8.24 µM (active); IC50 [10]: 64.3 µM (inactive)

Q: Which results are given for O=C(CNc1ccncc1)c1ccc(O)c(O)c1?
A: IC50 [11]: > 100 µM (inactive); IC50 [12]: > 100 µM (inactive)
